SMILES strings stand for the structures.

This note sets out measurements from patent US10246456B2, “IRAK4 inhibiting agents” (BIOGEN MA INC., priority 2014, dated 2019).

One test has as its target IRAK4 (Homo sapiens (Human), UniProt Q9NWZ3). As to the kind of experiment: IRAK-4 AlphaScreen biochemical kinase assay. Conditions: 1 nM IRAK4, 1 mM ATP, 3.5 h at RT. The method, boiled down: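 AlphaScreen read-out: streptavidin beads bind the biotinylated peptide and protein A beads bind the anti-phosphothreonine antibody, so energy transfer reports phosphorylation of the peptide. The kinase is human IRAK-4.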
Background: In Alpha technology, singlet oxygen from a donor bead excites a nearby acceptor bead.

In another test the test system is IL-6 in A549 cells. As to the kind of experiment: Cell-based IL-6 ELISA assay in IL-1beta stimulated A549 cells. As to conditions: 2 ng/ml human IL-1beta overnight. As for the experimental part: The cell-based assays is based on IL-6 ELISA quantification. Briefly, A549 cells are cultured in DMEM with 10% FBS medium. When cells reach 80% confluence they are trypsin treated and seeded 180 ul/well in 96-well plate at 2.5×10^4 cells/well. Then, 20 ul of compound serial dilutions (starting at 10 uM, 10 points) are added to the cell plate; incubate for 30 min at 37 C and stimulated with 2 ng/ml human IL-1beta 37 C, 5% CO2 overnight. The next day 100 ul of cell supernatant per well are analyzed on a Human IL-6 Quantikine ELISA kit from R&D Systems.
For orientation: In an ELISA, binding on a coated surface is turned into a signal by an enzyme label.

Chain of IRAK4 (Q9NWZ3 whole entry, species assumed): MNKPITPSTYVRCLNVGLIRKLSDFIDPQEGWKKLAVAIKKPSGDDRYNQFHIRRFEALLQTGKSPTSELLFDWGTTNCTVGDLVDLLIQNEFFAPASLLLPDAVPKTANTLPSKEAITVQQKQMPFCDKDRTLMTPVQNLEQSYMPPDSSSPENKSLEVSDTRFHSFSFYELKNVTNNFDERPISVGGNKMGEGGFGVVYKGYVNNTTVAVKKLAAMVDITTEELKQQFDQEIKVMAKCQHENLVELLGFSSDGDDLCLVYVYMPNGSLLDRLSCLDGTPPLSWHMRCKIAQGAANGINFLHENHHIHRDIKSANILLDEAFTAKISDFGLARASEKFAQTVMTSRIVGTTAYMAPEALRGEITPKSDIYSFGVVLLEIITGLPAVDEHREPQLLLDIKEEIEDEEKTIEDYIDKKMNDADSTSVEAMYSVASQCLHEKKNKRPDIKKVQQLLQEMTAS

What is called IC50 is the midpoint of a concentration-inhibition curve. As a reminder, the EC50 is the midpoint of the concentration-response curve. Consider `C[C@H](N)c1cccc(-c2cc(-c3ncco3)c3cnn(-c4cccc(CO)n4)c3c2)n1` [Example 359, (S)-(6-(6-(6-(1-aminoethyl)pyridin-2-yl)-4-(oxazol-2-yl)-1H-indazol-1-yl)pyridin-2-yl)methanol], for which, at IRAK4, the IC50 was less than 100 nM. The molecule also gave an EC50 in the test on IL-6 in A549 cells not above 1000 nM.
The matching figures for `CC[C@H](N)c1cccc(-c2cc(-c3ccn(C)n3)c3cnn(-c4cccc(CO)n4)c3c2)n1` [Example 360, (S)-(6-(6-(6-(1-aminopropyl)pyridin-2-yl)-4-(1-methyl-1H-pyrazol-3-yl)-1H-indazol-1-yl)pyridin-2-yl)methanol]: less than 100 nM and not above 1000 nM.
The matching figures for `CCC[C@H](N)c1cccc(-c2cc(-c3ccn(C)n3)c3cnn(-c4cccc(CO)n4)c3c2)n1` [Example 361]: less than 100 nM and not above 1000 nM.
The matching figures for `Cc1nnc(-c2cc(-c3cccc([C@H](C)N)n3)cc3c2cnn3-c2cccc(CO)n2)s1` [Example 362, (S)-(6-(6-(6-(1-aminoethyl)pyridin-2-yl)-4-(5-methyl-1,3,4-thiadiazol-2-yl)-1H-indazol-1-yl)pyridin-2-yl)methanol]: less than 100 nM and not above 1000 nM.
Consider `C[C@H](N)c1cccc(-c2cc(-c3cn(C)cn3)c3cnn(-c4cccc(CO)n4)c3c2)n1` [Example 363, (S)-(6-(6-(6-(1-aminoethyl)pyridin-2-yl)-4-(1-methyl-1H-imidazol-4-yl)-1H-indazol-1-yl)pyridin-2-yl)methanol], for which, on IRAK4, the IC50 is less than 100 nM. Besides, the EC50 in the test on IL-6 in A549 cells was not above 1000 nM.
For `C[C@H](N)c1cccc(-c2cc(-c3ncccn3)c3cnn(-c4cccc(CO)n4)c3c2)n1` [Example 364, (S)-(6-(6-(6-(1-aminoethyl)pyridin-2-yl)-4-(pyrimidin-2-yl)-1H-indazol-1-yl)pyridin-2-yl)methanol] the same measures were less than 100 nM and not above 1000 nM.
The matching figures for `Cc1cc(-c2cc(-c3cccc([C@H](C)N)n3)cc3c2cnn3-c2cccc(CO)n2)nn1C` [Example 365, (S)-(6-(6-(6-(1-aminoethyl)pyridin-2-yl)-4-(1,5-dimethyl-1H-pyrazol-3-yl)-1H-indazol-1-yl)pyridin-2-yl)methanol]: less than 100 nM and not above 1000 nM.
In turn, `Cc1cc(-c2cc(-c3cccc([C@H](C)N)n3)cc3c2cnn3-c2cccc(CO)n2)n[nH]1` [Example 366, (S)-(6-(6-(6-(1-aminoethyl)pyridin-2-yl)-4-(5-methyl-1H-pyrazol-3-yl)-1H-indazol-1-yl)pyridin-2-yl)methanol] showed an IC50 against IRAK4 of less than 100 nM. Besides, the EC50 with IL-6 in A549 cells is not above 1000 nM.
The matching figures for `C[C@H](N)c1cccc(-c2cc(-c3cnn(C)c3)c3cnn(-c4cccc(CO)n4)c3c2)n1` [Example 367, (S)-(6-(6-(6-(1-aminoethyl)pyridin-2-yl)-4-(1-methyl-1H-pyrazol-4-yl)-1H-indazol-1-yl)pyridin-2-yl)methanol]: less than 100 nM and not above 1000 nM.
The matching figures for `Cc1nc(-c2cc(-c3cccc([C@H](C)N)n3)cc3c2cnn3-c2cccc(CO)n2)cs1` [Example 368, (S)-(6-(6-(6-(1-aminoethyl)pyridin-2-yl)-4-(2-methylthiazol-4-yl)-1H-indazol-1-yl)pyridin-2-yl)methanol]: less than 100 nM and not above 1000 nM.
The matching figures for `C[C@H](N)c1cccc(-c2cc(-c3nc(C#N)cs3)c3cnn(-c4cccc(CO)n4)c3c2)n1` [Example 369, (S)-2-(6-(6-(1-aminoethyl)pyridin-2-yl)-1-(6-(hydroxymethyl)pyridin-2-yl)-1H-indazol-4-yl)thiazol-4-carbonitrile]: less than 100 nM and not above 1000 nM.
Turning to `C[C@H](N)c1cccc(-c2cc(-c3ccsn3)c3cnn(-c4cccc(CO)n4)c3c2)n1` [Example 370, (S)-(6-(6-(6-(1-aminoethyl)pyridi9n-2-yl)-4-(isothiazol-3-yl)-1H-indazol-1-yl)pyridin-2-yl)methanol], the IC50 at IRAK4 is less than 100 nM. This molecule yielded an EC50 with IL-6 in A549 cells not above 1000 nM.
The matching figures for `C[C@H](N)c1cccc(-c2cc(-c3ccccc3)c3cnn(-c4cccc(CO)n4)c3c2)n1` [Example 371, (S)-(6-(6-(6-(1-aminoethyl)pyridin-2-yl)-4-phenyl-1H-indazol-1-yl)pyridin-2-yl)methanol]: less than 100 nM and not above 1000 nM.
For `Cc1cnc(-c2cc(-c3cccc([C@H](C)N)n3)cc3c2cnn3-c2cccc(CO)n2)s1` [Example 372, (S)-(6-(6-(6-(1-aminoethyl)pyridin-2-yl)-4-(5-methylthiazol-2-yl)-1H-indazol-1-yl)pyridin-2-yl)methanol] the same measures were less than 100 nM and not above 1000 nM.
For `C[C@H](N)c1cccc(-c2cc(-c3ccccn3)c3cnn(-c4cccc(CO)n4)c3c2)n1` [Example 373, (S)-(6-(6-(6-(1-aminoethyl)pyridin-2-yl)-4-(pyridin-2-yl)-1H-indazol-1-yl)pyridin-2-yl)methanol] the same measures were less than 100 nM and not above 1000 nM.
Regarding `C[C@H](N)c1cccc(-c2cc(-c3nc(C(F)(F)F)co3)c3cnn(-c4cccc(CO)n4)c3c2)n1` [Example 374, (S)-(6-(6-(6-(1-aminoethyl)pyridin-2-yl)-4-(4-(trifluoromethyl)oxazol-2-yl)-1H-indazol-1-yl)pyridin-2-yl)methanol], the IC50 at IRAK4 is less than 100 nM. In the test with IL-6 in A549 cells, this molecule returned an EC50 not above 1000 nM.
For `Cc1csc(-c2cc(-c3cccc([C@H](C)N)n3)cc3c2cnn3-c2cccc(CO)n2)n1` [Example 375, (S)-(6-(6-(6-(1-aminoethyl)pyridin-2-yl)-4-(4-methylthiazol-2-yl)-1H-indazol-1-yl)pyridin-2-yl)methanol] the same measures were less than 100 nM and not above 1000 nM.
Molecule `C[C@H](N)c1cccc(-c2cc(-c3cnn(C(F)(F)F)c3)c3cnn(-c4cccc(CO)n4)c3c2)n1` [Example 376, (S)-(6-(6-(6-(1-aminoethyl)pyridin-2-yl)-4-(1-(trifluoromethyl)-1H-pyrazol-4-yl)-1H-indazol-1-yl)pyridin-2-yl)methanol] came in with an IC50 against IRAK4 of less than 100 nM. In the test on IL-6 in A549 cells, this molecule gave an EC50 not above 1000 nM.
In turn, `Cc1nc(-c2cc(-c3cccc([C@H](C)N)n3)cc3c2cnn3-c2cccc(CO)n2)sc1C` [Example 377, (S)-(6-(6-(6-(1-aminoethyl)pyridin-2-yl)-4-(4,5-dimethylthiazol-2-yl)-1H-indazol-1-yl)pyridin-2-yl)methanol] displayed an IC50 on IRAK4 of less than 100 nM. The molecule further registered an EC50 in the test on IL-6 in A549 cells not above 1000 nM.
As to `C[C@H](N)c1cccc(-c2cc(-c3nc(C(F)(F)F)cs3)c3cnn(-c4cccc(CO)n4)c3c2)n1` [Example 378, (S)-(6-(6-(6-(1-aminoethyl)pyridin-2-yl)-4-(4-(trifluoromethyl)thiazol-2-yl)-1H-indazol-1-yl)pyridin-2-yl)methanol], the IC50 at IRAK4 is less than 100 nM. Moreover, in the test on IL-6 in A549 cells, the EC50 lay within 1000 to 10000 nM.
`C[C@H](N)c1cccc(-c2cc(-c3nccs3)c3cnn(-c4cccc(CO)n4)c3c2)n1` [Example 379, (S)-(6-(6-(6-(1-aminoethyl)pyridin-2-yl)-4-(thiazol-2-yl)-1H-indazol-1-yl)pyridin-2-yl)methanol] gave an IC50 against IRAK4 of less than 100 nM. In addition, in the test with IL-6 in A549 cells, the EC50 was 1000 to 10000 nM.
`C[C@H](N)c1cccc(-c2cc(-c3ncc(C(F)(F)F)s3)c3cnn(-c4cccc(CO)n4)c3c2)n1` [Example 380, (S)-(6-(6-(6-(1-aminoethyl)pyridin-2-yl)-4-(5-(trifluoromethyl)thiazol-2-yl)-1H-indazol-1-yl)pyridin-2-yl)methanol] yielded a half-inhibitory concentration (IC50) on IRAK4 of less than 100 nM. This molecule displayed an EC50 with IL-6 in A549 cells of 1000 to 10000 nM.
For `C[C@H](N)c1cccc(-c2cc(-c3cc[nH]n3)c3cnn(-c4cccc(CO)n4)c3c2)n1` [Example 381, (S)-(6-(6-(6-(1-aminoethyl)pyridin-2-yl)-4-(1H-pyrazol-3-yl)-1H-indazol-1-yl)pyridin-2-yl)methanol] the same measures were less than 100 nM and 1000 to 10000 nM.
For `C[C@H](N)c1cccc(-c2ccc3cnn(-c4cncc(CO)n4)c3c2)n1` [Example 397, (S)-(6-(6-(6-(1-aminoethyl)pyridin-2-yl)-1H-indazol-1-yl)pyrazin-2-yl)methanol] the same measures were 100 to 1000 nM and not above 1000 nM.
The matching figures for `CC[C@H](N)c1cccc(-c2ccc3cnn(-c4cncc(CO)n4)c3c2)n1` [Example 398, (S)-(6-(6-(6-(1-aminopropyl)pyridin-2-yl)-1H-indazol-1-yl)pyrazin-2-yl)methanol]: less than 100 nM and not above 1000 nM.
Regarding `CCC[C@H](N)c1cccc(-c2ccc3cnn(-c4cncc(CO)n4)c3c2)n1` [Example 399, (S)-(6-(6-(6-(1-aminobutyl)pyridin-2-yl)-1H-indazol-1-yl)pyrazin-2-yl)methanol], on IRAK4, the IC50 is less than 100 nM. Besides, in the test with IL-6 in A549 cells, the EC50 was not above 1000 nM.
The matching figures for `C[C@H](N)c1ccnc(-c2ccc3cnn(-c4cccc(CO)n4)c3c2)n1` [Example 411, (S)-(6-(6-(4-(1-aminoethyl)pyrimidin-2-yl)-1H-indazol-1-yl)pyridin-2-yl)methanol]: less than 100 nM and not above 1000 nM.
On to `CCC[C@H](N)c1ccnc(-c2ccc3cnn(-c4cccc(CO)n4)c3c2)n1` [Example 413, (S)-(6-(6-(4-(1-aminobutyl)pyrimidin-2-yl)-1H-indazol-1-yl)pyridin-2-yl)methanol], for which the IC50 on IRAK4 was less than 100 nM. The molecule also yielded an EC50 in the test on IL-6 in A549 cells not above 1000 nM.
